Here are results for five compounds from US5723465A, “Inhibitors for cell adhesion and cellular infiltration” (Kowa Co., Ltd., priority 1995, dated 1998).

SMILES strings stand for the structures. pIC50: −log10 of the molar value. Read-outs that look alike come from different tables or passages of the source.

For orientation: pIC50 means the IC50 on a negative log10 scale, so that one unit is a factor of ten.

The subject of experiment [1] is adhesion of U937 cells to human umbilical vein endothelial cells (HUVEC). In words: Cell adhesion inhibitory effect: adhesion of U937 cells to IL-1β- or TNFα-stimulated HUVEC. It is filed as cell-based. Conditions: 0.75 h, 45 minutes adhesion at room temperature. The method, then: The test was performed with reference to a method described by Ross et al (J. Biol. Chem., 267, 8537-8543 (1992)). Briefly, endothelial cells derived from the human umbilical code vein (HUVEC) were cultured in a 48-well plate until they became confluent. Subsequently, IL-1β or TNFα was added. Five hours after the addition, U937 cells which are derived from human monocytes/histiocytes and FITC-labeled with PKH2 (Dainippon Seiyaku) were added to each well in an amount of 3×10^5 cells per well. After being allowed to stand for 45 minutes at room temperature, U937 cells which had not been adhered to were washed off, and the remaining cells were lysed using 1% Triton X-100. Fluorescent intensity was measured (Exi. 494 nm, Emi. 504 nm). The HUVEC cells were cultured in EGM-UV (Kurabo Industries Ltd.), and U937 cells were cultured in RPMI1640 plus 10% FCS. Each test drug (compound) was added to HUVEC simultaneously with the addition of IL-1β or TNFα, or to U937 cells 24 hours before the cell adhesion test, to thereby study the effect of the compound. The inhibitory activity was determined by the following equation: […]
(the number of drug-free U937 cells adhered to drug-free endothelial cells that have been stimulated with IL-1β or TNFα)--(the number of drug-free U937 cells adhered to drug-free endothelial cells that have not been stimulated with IL-1β or TNFα)=100%

In experiment [2] the test system is lymphocyte infiltration (CD3 positive cells) in mouse contact dermatitis. Briefly: Lymphocyte infiltration inhibitory action in mouse contact dermatitis. It is filed as in vivo, mouse (ddy male). The note with it: 6 successive days before induction, 24 h after picryl chloride; for Ear weight (difference in weight of both ears): control 4.9 ± 0.7; for Count of CD3 positive cells: control 10.8 ± 1.3. On the procedure:
In accordance with a method described by Asherson et al. (Immunology, 15, 405-416 (1968)), action of the compound on lymphocyte infiltration in mouse contact dermatitis was investigated. Groups of ddy male mice that had been sensitized with picryl chloride, each group consisting of 10 animals (body weight: 28-32 g), were provided for the test. Test compound 2 was intraperitoneally administered to each animal for successive 6 days before induction took place (1 or 10 mg/kg). A 1% solution of picryl chloride-olive oil (0.02 ml) was applied to an ear of each animal. Twenty-four hours later, both ears were punched (7 mm.phi.), to thereby compute the difference in weight. The ears were then embedded in paraffin, frozen, and cut in a vertical direction with respect to the ear face to prepare thin slices each having a thickness of 4 μm. CD3 positive cells were immunostained and counted.

Experiment [3] has as its system mouse type II collagen arthritis. In words: Action on mouse type II collagen arthritis. It is filed as in vivo, mouse (DBA/1 male). Conditions: 30 mg/kg intraperitoneally once daily, 10 times. The method, then: The test was performed in accordance with a method described by Ranges et al. (J. Exp. Med., 162, 1105-1110 (1985)). To each of DBA/1 male mice (6-7 weeks old), 100 μg of type II collagen from bovine suspended in Freund's complete adjuvant was subcutaneously injected at the root of its tail. Twenty one days later, the mice was given a booster injection in a similar manner. The drug was intraperitoneally administered to each mouse once every day starting from 2 days prior to the booster injection until 7 days after the booster injection (a total of 10 times). The severity of arthritis was evaluated by measuring the thickness of the front foot pads. In addition, antibody titers (IgG+IgM) against type II collagen in serum were determined by ELISA.

Experiment [4] concerns leukocyte infiltration in rat carrageenin pleurisy. Briefly: Leukocyte infiltration inhibitory action in rat carrageenin pleurisy. Format: in vivo. The note with it: 2 successive days, 16 h after carrageenin; for Count of infiltrated cells: control 2.37 ± 0.06; for Pleural fluid volume: control 3.3 ± 0.3. The method, then: In accordance with a method described by Kikuchi et al. (Japan J. Pharmacol., 39, 467-473 (1985)), action of the compound on leukocyte infiltration in rat carrageenin pleurisy was investigated. Groups of SD male […], each group consisting of 6 animals (7 weeks old), were provided for the test. Test compound 2 was intraperitoneally administered to each animal for successive 2 days (10 or 30 mg/kg). Two hours after the final administration, a 2% (w/v) carrageenin solution (0.1 ml) was intrathoracically administered. Sixteen hours later, each animal was exsanguinated to death, and pleural fluid was collected. The volume of the collected pleural fluid was measured, and cells that infiltrated and present in the pleural fluid were counted.

For experiment [5], the system named is infiltration of trachea by eosinocytes. Briefly: Inhibition of eosinocyte infiltration in a guinea pig asthma model. It is filed as in vivo, guinea pig (Hartley male). Conditions: 6 successive days plus 2 hours after challenge, 24 h after, control 204.5 ± 15.3, blank 67.7 ± 7.2. On the procedure: In accordance with a method described by Terashi (Allergy, 37, 980-991 (1988)), groups of Hartley male guinea pigs, each group consisting of 4-7 animals (body weight: about 300 g), were exposed to chicken egg albumin (10 mg/ml) by way of inhalation using a ultrasonic nebulizer for 10 minutes a day for successive 9 days, to thereby create a sensitized state of the animals. From the following day, test compound 2 was intraperitoneally administered to each animal for successive 6 days (10 or 30 mg/kg). On day 7, metopyrone (10 mg/kg) and chlorphenylamine (10 mg/kg) were intraperitoneally administered to each animal. Thirty minutes later, each animal was exposed to chicken egg albumin (10 mg/ml) for 10 minutes by way of inhalation. In addition, 2 hours thereafter, test compound 2 was intraperitoneally administered to each animal. Twenty-four hours later, each animal was exsanguinated to death, and its trachea was removed. The trachea was fixed with formalin and embedded in paraffin, so as to prepare thin slice samples. The samples were subjected to luna staining, and eosinocytes that infiltrated were counted.

Setting [6] is: IL-1β-stimulated HUVEC, read-out: Cell Adhesion (IC50), IL-1β Stimulation.
Where [7] appears, read: TNFα-stimulated HUVEC, read-out: Cell Adhesion (IC50), TNFα Stimulation.
[8] abbreviates: 10 mg/kg intraperitoneally, p <0.05.
Where [9] appears, read: 30 mg/kg intraperitoneally, p <0.01.

For `COc1ccccc1/C=C/CN1CCN(C/C=C/c2ccccc2OC)CC1` [compound 3], the pIC50 is 5.47 in experiment [1] (setting [6]) and 4.89 in experiment [1] (setting [7]).
As for `COc1cc(/C=C/CCCN2CCCN(CCC/C=C/c3cc(OC)c(OC)c(OC)c3)CC2)cc(OC)c1OC` [Test Compound 2, N,N'-bis-((E)-5-(3,4,5-trimethoxyphenyl)-4-pentenyl)homopiperazine.2HCl], the “Ear weight (difference in weight of both ears)” value in experiment [2] (1 mg/kg intraperitoneally) turned out to be 4.5 ± 0.8 mg/7 mm.phi; in experiment [2] (setting [8]), 2.9 ± 0.6 mg/7 mm.phi. Also, the “Count of CD3 positive cells” value in experiment [2] (1 mg/kg intraperitoneally, p <0.05) is recorded as 7.8 ± 0.4 cells/mm; in experiment [2] (10 mg/kg intraperitoneally, p <0.01), 4.2 ± 0.7 cells/mm. Also, the “Thickness of front foot pad, after 30 days” value in experiment [3] (after 30 days, control 421.3 ± 13.1, blank 361.0 ± 4.2, p <0.05) is given as 384.8 ± 6.9 × 10^-2 mm. Moreover, the “Antibody titer against collagen (IgG + IgM), after 33 days” value in experiment [3] (serum, ELISA, after 33 days, control 1.00 ± 0.13, blank 0 ± 0.00, p <0.01) is 0.43 ± 0.10 percentage with respect to the. The “Count of infiltrated cells” value was 1.97 ± 0.05 × 10^8 in experiment [4] (10 mg/kg intraperitoneally) and 1.68 ± 0.22 × 10^8 in experiment [4] (setting [9]). Besides, the Pleural fluid volume in experiment [4] (10 mg/kg intraperitoneally) was determined as 2.5 ± 0.3 mL; in experiment [4] (30 mg/kg intraperitoneally, p <0.05), 2.5 ± 0.3 mL. The “Infiltration of trachea by eosinocytes” value in experiment [5] (setting [8]) was found to be 171.0 ± 6.5 cells/mm; in experiment [5] (setting [9]), 122.2 ± 7.0 cells/mm.
On to `COc1cc(/C=C\CCCN2CCCN(CCC/C=C\c3cc(OC)c(OC)c(OC)c3)CC2)cc(OC)c1OC` [compound 1], for which the pIC50 is 5.01 in experiment [1] (setting [6]) and 5.10 in experiment [1] (setting [7]).
Turning to `COc1ccc(/C=C/CCCN2CCN(CCC/C=C/c3ccc(OC)cc3)CC2)cc1` [compound 4], the pIC50 in experiment [1] (setting [6]) was 4.95; in experiment [1] (setting [7]), 5.03.
Take `COc1cc(/C=C/CCCN2CCCN(CCC/C=C/c3cc(OC)c(OC)c(OC)c3)CC2)cc(OC)c1OC` [compound 2]: the pIC50 in experiment [1] (setting [6]) is 5.05; in experiment [1] (setting [7]), 5.02.
